Source: the supplement of paper PMC13207355
Counter-ions that a name gives are not always drawn.

How the values were obtained:
Settings in all cases: exposure time: 72 h
E13 [1] = patient-derived glioblastoma stem cells of classical subtype; assay: phenotypic distance (Euclidean, principal components) from DMSO controls (arbitrary units); higher = stronger morphological change
E21 [2] = patient-derived glioblastoma stem cells of mesenchymal subtype; assay: as above
E28 [3] = patient-derived glioblastoma stem cells of classical subtype; assay: as above
E31 [4] = patient-derived glioblastoma stem cells of proneural subtype; assay: as above
E34 [5] = patient-derived glioblastoma stem cells of proneural subtype; assay: as above
FT3469 [6] = normal neural stem cell line; assay: as above
E57 [7] = patient-derived glioblastoma stem cells of mesenchymal subtype; assay: as above
E13 [8] = assay: surviving fraction (nuclei count normalised to DMSO); higher = more cells surviving (less toxic)
E21 [9] = assay: as above
E28 [10] = assay: as above
E31 [11] = assay: as above
E34 [12] = assay: as above
FT3469 [13] = assay: as above
E57 [14] = assay: as above
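For phenotypic distance (Euclidean, principal components) from DMSO controls in this document: cell Painting imaging in 384-well plates, CellProfiler features reduced to at least 20 principal components, Euclidean distance versus same-plate DMSO vehicle wells (0.1% v/v), median over six images per well.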
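For surviving fraction (nuclei count normalised to DMSO) in this document: nuclei counted by high-content imaging of Hoechst-stained cells in laminin-coated 384-well plates, relative to 0.1% DMSO vehicle wells, with staurosporine as cell-death control.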

CC(C)NCC(O)c1cc(O)cc(O)c1 (stereo unspecified) [Metaproterenol sulfate, orciprenaline sulfate]
Settings | phenotypic distance | surviving fraction
E13 [1], 4.1 nM | 0.452 | –
E13 [1], 12.3 nM | 0.546 | –
E13 [1], 37 nM | 0.581 | –
E13 [1], 111.1 nM | 0.458 | –
E13 [1], 333.3 nM | 0.743 | –
E13 [1], 1000 nM | 0.439 | –
E13 [1], 3000 nM | 0.72 | –
E13 [8], 4.1 nM | – | 0.979
E13 [8], 12.3 nM | – | 0.957
E13 [8], 37 nM | – | 1.06
E13 [8], 111.1 nM | – | 0.933
E13 [8], 333.3 nM | – | 1.06
E13 [8], 1000 nM | – | 0.995
E13 [8], 3000 nM | – | 1.06
E21 [2], 4.1 nM | 0.506 | –
E21 [2], 12.3 nM | 0.541 | –
E21 [2], 37 nM | 0.821 | –
E21 [2], 111.1 nM | 2.96 | –
E21 [2], 333.3 nM | 0.869 | –
E21 [2], 1000 nM | 0.684 | –
E21 [2], 3000 nM | 0.751 | –
E21 [9], 4.1 nM | – | 1
E21 [9], 12.3 nM | – | 0.995
E21 [9], 37 nM | – | 1.01
E21 [9], 111.1 nM | – | 1.05
E21 [9], 333.3 nM | – | 1.13
E21 [9], 1000 nM | – | 1.02
E21 [9], 3000 nM | – | 1.07
E28 [3], 4.1 nM | 0.775 | –
E28 [3], 12.3 nM | 0.464 | –
E28 [3], 37 nM | 0.677 | –
E28 [3], 111.1 nM | 0.689 | –
E28 [3], 333.3 nM | 1.06 | –
E28 [3], 1000 nM | 0.558 | –
E28 [3], 3000 nM | 0.934 | –
E28 [10], 4.1 nM | – | 1.2
E28 [10], 12.3 nM | – | 1.1
E28 [10], 37 nM | – | 1.06
E28 [10], 111.1 nM | – | 1.14
E28 [10], 333.3 nM | – | 1.21
E28 [10], 1000 nM | – | 1.04
E28 [10], 3000 nM | – | 1.13
E31 [4], 4.1 nM | 0.663 | –
E31 [4], 12.3 nM | 0.455 | –
E31 [4], 37 nM | 0.562 | –
E31 [4], 111.1 nM | 0.625 | –
E31 [4], 333.3 nM | 0.672 | –
E31 [4], 1000 nM | 0.447 | –
E31 [4], 3000 nM | 0.615 | –
E31 [11], 4.1 nM | – | 0.982
E31 [11], 12.3 nM | – | 1.02
E31 [11], 37 nM | – | 0.984
E31 [11], 111.1 nM | – | 1.14
E31 [11], 333.3 nM | – | 1.02
E31 [11], 1000 nM | – | 1.13
E31 [11], 3000 nM | – | 1.03
E34 [5], 4.1 nM | 0.654 | –
E34 [5], 12.3 nM | 0.671 | –
E34 [5], 37 nM | 0.473 | –
E34 [5], 111.1 nM | 0.805 | –
E34 [5], 333.3 nM | 0.747 | –
E34 [5], 1000 nM | 0.882 | –
E34 [5], 3000 nM | 0.769 | –
E34 [12], 4.1 nM | – | 0.922
E34 [12], 12.3 nM | – | 1.02
E34 [12], 37 nM | – | 1.04
E34 [12], 111.1 nM | – | 0.924
E34 [12], 333.3 nM | – | 1.02
E34 [12], 1000 nM | – | 1.24
E34 [12], 3000 nM | – | 0.961
E57 [7], 4.1 nM | 0.966 | –
E57 [7], 12.3 nM | 0.872 | –
E57 [7], 37 nM | 0.874 | –
E57 [7], 111.1 nM | 0.737 | –
E57 [7], 333.3 nM | 1 | –
E57 [7], 1000 nM | 0.774 | –
E57 [7], 3000 nM | 0.716 | –
E57 [14], 4.1 nM | – | 1.18
E57 [14], 12.3 nM | – | 1.11
E57 [14], 37 nM | – | 1.14
E57 [14], 111.1 nM | – | 0.953
E57 [14], 333.3 nM | – | 1.07
E57 [14], 1000 nM | – | 1.18
E57 [14], 3000 nM | – | 1.02
FT3469 [6], 4.1 nM | 1.07 | –
FT3469 [6], 12.3 nM | 1.13 | –
FT3469 [6], 37 nM | 0.697 | –
FT3469 [6], 111.1 nM | 0.559 | –
FT3469 [6], 333.3 nM | 0.916 | –
FT3469 [6], 1000 nM | 1.01 | –
FT3469 [6], 3000 nM | 1.08 | –
FT3469 [13], 4.1 nM | – | 1.18
FT3469 [13], 12.3 nM | – | 1.32
FT3469 [13], 37 nM | – | 1.05
FT3469 [13], 111.1 nM | – | 1.14
FT3469 [13], 333.3 nM | – | 1.13
FT3469 [13], 1000 nM | – | 1.04
FT3469 [13], 3000 nM | – | 1.22

COc1ccc(C(=O)CC(=O)c2ccc(C(C)(C)C)cc2)cc1 [Avobenzone]
Settings | phenotypic distance | surviving fraction
E13 [1], 4.1 nM | 1.11 | –
E13 [1], 12.3 nM | 0.579 | –
E13 [1], 37 nM | 0.386 | –
E13 [1], 111.1 nM | 0.499 | –
E13 [1], 333.3 nM | 0.627 | –
E13 [1], 1000 nM | 0.606 | –
E13 [1], 3000 nM | 0.743 | –
E13 [8], 4.1 nM | – | 0.902
E13 [8], 12.3 nM | – | 1.02
E13 [8], 37 nM | – | 1.08
E13 [8], 111.1 nM | – | 0.948
E13 [8], 333.3 nM | – | 1.11
E13 [8], 1000 nM | – | 1.07
E13 [8], 3000 nM | – | 0.8
E21 [2], 4.1 nM | 0.845 | –
E21 [2], 12.3 nM | 0.782 | –
E21 [2], 37 nM | 0.67 | –
E21 [2], 111.1 nM | 0.818 | –
E21 [2], 333.3 nM | 0.929 | –
E21 [2], 1000 nM | 0.701 | –
E21 [2], 3000 nM | 1.59 | –
E21 [9], 4.1 nM | – | 1.1
E21 [9], 12.3 nM | – | 1.17
E21 [9], 37 nM | – | 1.05
E21 [9], 111.1 nM | – | 1.13
E21 [9], 333.3 nM | – | 1.13
E21 [9], 1000 nM | – | 1.07
E21 [9], 3000 nM | – | 0.82
E28 [3], 4.1 nM | 1.01 | –
E28 [3], 12.3 nM | 0.675 | –
E28 [3], 37 nM | 0.613 | –
E28 [3], 111.1 nM | 0.631 | –
E28 [3], 333.3 nM | 0.646 | –
E28 [3], 1000 nM | 0.601 | –
E28 [3], 3000 nM | 0.879 | –
E28 [10], 4.1 nM | – | 1.14
E28 [10], 12.3 nM | – | 1.14
E28 [10], 37 nM | – | 1.14
E28 [10], 111.1 nM | – | 0.988
E28 [10], 333.3 nM | – | 1.06
E28 [10], 1000 nM | – | 1.12
E28 [10], 3000 nM | – | 0.739
E31 [4], 4.1 nM | 0.665 | –
E31 [4], 12.3 nM | 0.919 | –
E31 [4], 37 nM | 0.653 | –
E31 [4], 111.1 nM | 0.43 | –
E31 [4], 333.3 nM | 0.486 | –
E31 [4], 1000 nM | 0.737 | –
E31 [4], 3000 nM | 0.899 | –
E31 [11], 4.1 nM | – | 0.989
E31 [11], 12.3 nM | – | 1.02
E31 [11], 37 nM | – | 1.02
E31 [11], 111.1 nM | – | 0.921
E31 [11], 333.3 nM | – | 0.973
E31 [11], 1000 nM | – | 1.06
E31 [11], 3000 nM | – | 0.941
E34 [5], 4.1 nM | 0.805 | –
E34 [5], 12.3 nM | 0.881 | –
E34 [5], 37 nM | 0.524 | –
E34 [5], 111.1 nM | 0.804 | –
E34 [5], 333.3 nM | 0.741 | –
E34 [5], 1000 nM | 0.759 | –
E34 [5], 3000 nM | 1.45 | –
E34 [12], 4.1 nM | – | 1.08
E34 [12], 12.3 nM | – | 0.923
E34 [12], 37 nM | – | 0.995
E34 [12], 111.1 nM | – | 1.06
E34 [12], 333.3 nM | – | 1.04
E34 [12], 1000 nM | – | 1.03
E34 [12], 3000 nM | – | 0.818
E57 [7], 4.1 nM | 0.899 | –
E57 [7], 12.3 nM | 1.11 | –
E57 [7], 37 nM | 0.644 | –
E57 [7], 111.1 nM | 0.447 | –
E57 [7], 333.3 nM | 1.15 | –
E57 [7], 1000 nM | 0.55 | –
E57 [7], 3000 nM | 1.16 | –
E57 [14], 4.1 nM | – | 1.04
E57 [14], 12.3 nM | – | 1.07
E57 [14], 37 nM | – | 1.02
E57 [14], 111.1 nM | – | 0.975
E57 [14], 333.3 nM | – | 1.12
E57 [14], 1000 nM | – | 1.03
E57 [14], 3000 nM | – | 0.96
FT3469 [6], 4.1 nM | 0.579 | –
FT3469 [6], 12.3 nM | 0.768 | –
FT3469 [6], 37 nM | 0.688 | –
FT3469 [6], 111.1 nM | 0.824 | –
FT3469 [6], 333.3 nM | 0.788 | –
FT3469 [6], 1000 nM | 2.5 | –
FT3469 [6], 3000 nM | 0.402 | –
FT3469 [13], 4.1 nM | – | 1.08
FT3469 [13], 12.3 nM | – | 1.38
FT3469 [13], 37 nM | – | 1
FT3469 [13], 111.1 nM | – | 1.2
FT3469 [13], 333.3 nM | – | 0.863
FT3469 [13], 1000 nM | – | 1.25
FT3469 [13], 3000 nM | – | 0.973
